Values of other authors, collected in patent US20240417323A1, “BUBBLE-CONTAINING GYPSUM SLURRY” (KAO CORPORATION, priority 2022, published 2024).

Settings: 1-octanol/water; measured value if any, otherwise C log P calculated by C LOG P v 4.01
For `CCC(C)(C)CO` [2,2-dimethyl-1-butanol], the “Log P” value is given as 1.57. In the case of `CCC(CC)CO` [2-ethyl-1-butanol], the “Log P” value is given as 1.75. In the case of `CCCC(C)CO` (centres unmarked) [2-methyl-1-pentanol], the “Log P” value is listed as 1.75. For `CCCC(C)(C)O` [2-methyl-2-pentanol], the “Log P” value is listed as 1.57. In the case of `CCC(O)C(C)C` (centres unmarked) [2-methyl-3-pentanol], the “Log P” value is given as 1.57. In the case of `CCC(C)CCO` (centres unmarked) [3-methyl-1-pentanol], the “Log P” value is given as 1.75. For `CC(C)C(C)O` (centres unmarked) [3-methyl-2-butanol], the “Log P” value is given as 1.28. For `CCC(C)C(C)O` (centres unmarked) [3-methyl-2-pentanol], the “Log P” value is given as 1.57. For `CCC(C)(O)CC` [3-methyl-3-pentanol], the “Log P” value is given as 1.57. For `CC(C)CCCO` [4-methyl-1-pentanol], the “Log P” value is given as 1.75. In the case of `CC(C)CC(C)O` (centres unmarked) [4-methyl-2-pentanol], the “Log P” value is listed as 1.57. For `CC(C)CCCCCO` [6-methyl-1-heptanol], the “Log P” value is listed as 2.73. In the case of `CCCCCCCO` [Example 1-heptanol, 1-heptanol], the “Log P” value is listed as 2.62. For `CCCC=O` [butanal], the “Log P” value is given as 0.88. In the case of `CCCCOCC` [butyl ethyl ether], the “Log P” value is given as 2.03. For `CCCCOC(=O)C(C)O` (centres unmarked) [butyl lactate], the “Log P” value is listed as 0.8. For `OC1CCCC1` [cyclopentanol], the “Log P” value is given as 0.71. In the case of `CC(C)OC(C)C` [diisopropyl ether], the “Log P” value is given as 1.52. In the case of `COC` [dimethyl ether], the “Log P” value is given as 0.1. In the case of `CCCCCC=O` [hexanal], the “Log P” value is listed as 1.78.
